Measured values from patent US7259174B2, “Imidazolidinone compounds” (National Health Research Institutes, priority 2004, dated 2007).

Assays:
[1] = system: EV71-2231; assay: plaque reduction assay, EV71-2231; assay type: cell-based, Enterovirus 71 (EV71); conditions: Enterovirus A, vero cells, plaques counted after 96 hours at 35° C.
From the text: (§1) Enterovirus 71 (EV71) isolates were obtained from Chang Gung Children's Hospitals (Taipei, Taiwan) and National Cheng Kung University Hospital (Tainan, Taiwan). EV71-2231 and EV71-1743 were isolated from throat swabs. EV71-2086 was isolated from the skin lesion of an implicated HFMD (hand, foot, and mouth disease) patient. EV71-4643 was a clinical isolate obtained from the throat swabs of a patient with encephalitis). BrCr, the prototype of EV71, was obtained from the American Type Culture Collection (ATCC Accession No. VR 784). Vero cells (ATCC Accession No. CCL-81) were used for virus isolation and propagation.
(§2) The antiviral activity of a number of imidazolidinone compounds was determined by a standard plaque reduction assay as described in Otto et al., Antimicrobial Agents & Chemotherapy, 1985, 27:883-886.
(§3) A compound to be tested was serially diluted and included in the agar-medium overlay. Plates were incubated at 35° C. for 96 hours. The plaques were stained with crystal violet and counted.

[2] = system: EV71-4643; assay: plaque reduction assay, EV71-4643; assay type: cell-based, Enterovirus 71 (EV71); conditions: Enterovirus A, vero cells, plaques counted after 96 hours at 35° C.
From the text: as §1, §2, §3

Row | IC50 [1] [nM] | IC50 [2] [nM] | Compound
1 | ≤ 38.1 | ≤ 38.1 | CCO/N=C/c1ccc(OCCC(C)CCN2CCN(c3ccncc3)C2=O)cc1 (centres unmarked) [Compound 5, 4-[3-methyl-5-(2-oxo-3-pyridin-4-yl-imidazolidin-1-yl)-pentyloxy]-benzaldehyde O-ethyl-oxime]
2 | ≤ 38.1 | ≤ 38.1 | CCO/N=C/c1ccc(OCCC(C)(C)CCN2CCN(c3ccncc3)C2=O)cc1 [Compound 6, 4-[3,3-dimethyl-5-(2-oxo-3-pyridin-4-yl-imidazolidin-1-yl)-pentyloxy]-benzaldehyde O-ethyl-oxime]
3 | ≤ 38.1 | ≤ 38.1 | CCO/N=C/c1ccc(OCC[C@H](C)CCN2CCN(c3ccncc3)C2=O)cc1 [Compound 7, 4-[(R)-3-methyl-5-(2-oxo-3-pyridin-4-yl-imidazolidin-1-yl)-pentyloxy]-benzaldehyde O-ethyl-oxime]
4 | ≤ 38.1 | ≤ 38.1 | CCO/N=C/c1ccc(OCC[C@@H](C)CCN2CCN(c3ccncc3)C2=O)cc1 [Compound 8, 4-[(S)-3-methyl-5-(2-oxo-3-pyridin-4-yl-imidazolidin-1-yl)-pentyloxy]-benzaldehyde O-ethyl-oxime]
